Toxic doses and inconclusive results are not listed. How the source made its calls: active means survival T/C of 150% or more; inactive means T/C below 125% in these data.
System: CD2F1 mice, L1210 leukemia ip, survival T/C
Assay: NCI In Vivo Anticancer Drug Screen. Data for tumor model L1210 Leukemia (intraperitoneal) in CD2F1 (CDF1) mice
Details: higher = longer survival
Procedure, shortened: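 Transplantable tumor in mice; compound-treated vs vehicle-treated groups. Read-out = treated/control ratio of the measured endpoint.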

[1] = endpoint: mean survival time, dose: 100.0 mg/kg/injection, schedule: Q01DX009 (ip), vehicle: saline with Tween-80
[2] = endpoint: mean survival time, dose: 200.0 mg/kg/injection, schedule: Q01DX009 (ip), vehicle: saline with Tween-80
[3] = endpoint: mean survival time, dose: 400.0 mg/kg/injection, schedule: Q01DX009 (ip), vehicle: saline with Tween-80
[4] = endpoint: mean survival time, dose: 100.0 mg/kg/injection, schedule: Q04DX003 (ip), vehicle: saline with Tween-80
[5] = endpoint: mean survival time, dose: 200.0 mg/kg/injection, schedule: Q04DX003 (ip), vehicle: saline with Tween-80
[6] = endpoint: mean survival time, dose: 400.0 mg/kg/injection, schedule: Q04DX003 (ip), vehicle: saline with Tween-80

Measured: T/C

COC1CCC(/C(C#N)=C/C2CCC(N(C)C)CC2)CC1 (stereo unspecified)
inactive: [1] 89 % of control | [2] 100 % of control | [3] 96 % of control

CCOC(=O)/C=C/C(=O)N1CCN(C(=O)/C=C/C(=O)OCC)C(C)C1 (stereo unspecified)
inactive: endpoint: median survival time, dose: 25.0 mg/kg/injection, schedule: Q01DX009 (ip), vehicle: Klucel (hydroxypropylcellulose) (HPC) 106 % of control | endpoint: median survival time, dose: 50.0 mg/kg/injection, schedule: Q01DX009 (ip), vehicle: Klucel (hydroxypropylcellulose) (HPC) 110 % of control | endpoint: median survival time, dose: 100.0 mg/kg/injection, schedule: Q01DX009 (ip), vehicle: Klucel (hydroxypropylcellulose) (HPC) 109 % of control | endpoint: median survival time, dose: 200.0 mg/kg/injection, schedule: Q01DX009 (ip), vehicle: Klucel (hydroxypropylcellulose) (HPC) 109 % of control | endpoint: median survival time, dose: 400.0 mg/kg/injection, schedule: Q01DX009 (ip), vehicle: Klucel (hydroxypropylcellulose) (HPC) 109 % of control

COc1ccc(C(=CC2=CC(=O)C3=C(CCCC3)C2=O)c2ccc(OC)cc2)cc1
inactive: endpoint: mean survival time, dose: 100.0 mg/kg/injection, schedule: Q04DX003 (ip), vehicle: saline sonified 96 % of control | endpoint: mean survival time, dose: 200.0 mg/kg/injection, schedule: Q04DX003 (ip), vehicle: saline sonified 100 % of control | endpoint: mean survival time, dose: 400.0 mg/kg/injection, schedule: Q04DX003 (ip), vehicle: saline sonified 97 % of control

CC(=O)NCc1cc(CNC(C)=O)c(C)cc1C
inactive: [1] 98 % of control | [4] 95 % of control | [2] 88 % of control | [5] 91 % of control | [3] 95 % of control | [6] 87 % of control

O=C(CC(O)(C(F)(F)F)C(F)(F)F)C(Cl)C(O)(C(F)(F)F)C(F)(F)F (stereo unspecified)
inactive: endpoint: mean survival time, dose: 100.0 mg/kg/injection, schedule: Q01DX001 (ip), vehicle: other 102 % of control

COc1ccc2c(c1O)CNCC2c1ccc(O)cc1O (stereo unspecified)
inactive: endpoint: mean survival time, dose: 75.0 mg/kg/injection, schedule: Q01DX001 (ip), vehicle: saline 100 % of control | endpoint: mean survival time, dose: 150.0 mg/kg/injection, schedule: Q01DX001 (ip), vehicle: saline 98 % of control

COc1ccc(N=NNc2ccc(OC)cc2)cc1
inactive: endpoint: mean survival time, dose: 6.25 mg/kg/injection, schedule: Q01DX009 (ip), vehicle: saline with Tween-80 100 % of control | endpoint: mean survival time, dose: 12.5 mg/kg/injection, schedule: Q01DX009 (ip), vehicle: saline with Tween-80 96 % of control | endpoint: mean survival time, dose: 25.0 mg/kg/injection, schedule: Q01DX009 (ip), vehicle: saline with Tween-80 102 % of control

CCOC(=O)C12CCCCCC1CC(=O)CC2 (stereo unspecified)
inactive: endpoint: mean survival time, dose: 100.0 mg/kg/injection, schedule: Q04DX003 (ip), vehicle: acetone 96 % of control | endpoint: mean survival time, dose: 200.0 mg/kg/injection, schedule: Q04DX003 (ip), vehicle: acetone 93 % of control | endpoint: mean survival time, dose: 400.0 mg/kg/injection, schedule: Q04DX003 (ip), vehicle: acetone 86 % of control

O=C1O/C(=C2/OC(=O)c3ccccc32)c2ccccc21
inactive: endpoint: mean survival time, dose: 50.0 mg/kg/injection, schedule: Q04DX002 (ip), vehicle: saline with Tween-80 92 % of control | endpoint: mean survival time, dose: 100.0 mg/kg/injection, schedule: Q04DX002 (ip), vehicle: saline with Tween-80 92 % of control | endpoint: mean survival time, dose: 200.0 mg/kg/injection, schedule: Q04DX002 (ip), vehicle: saline with Tween-80 92 % of control | endpoint: mean survival time, dose: 400.0 mg/kg/injection, schedule: Q04DX002 (ip), vehicle: saline with Tween-80 96 % of control

CC1(C2CC(=O)OC2=O)OCCO1 (stereo unspecified)
inactive: endpoint: mean survival time, dose: 50.0 mg/kg/injection, schedule: Q01DX001 (ip), vehicle: saline 96 % of control | endpoint: mean survival time, dose: 100.0 mg/kg/injection, schedule: Q01DX001 (ip), vehicle: saline 102 % of control | endpoint: mean survival time, dose: 200.0 mg/kg/injection, schedule: Q01DX001 (ip), vehicle: saline 93 % of control

NCCS/C=C/C(=O)O
inactive: endpoint: mean survival time, dose: 100.0 mg/kg/injection, schedule: Q04DX003 (ip), vehicle: saline 97 % of control | endpoint: mean survival time, dose: 200.0 mg/kg/injection, schedule: Q04DX003 (ip), vehicle: saline 109 % of control | endpoint: mean survival time, dose: 400.0 mg/kg/injection, schedule: Q04DX003 (ip), vehicle: saline 101 % of control

O=C(Nc1ccc(Nc2ccncc2)cc1)c1ccc(Nc2ccnc3ccccc23)cc1[N+](=O)[O-]
inactive: endpoint: mean survival time, dose: 100.0 mg/kg/injection, schedule: Q01DX001 (ip), vehicle: saline with Tween-80 98 % of control | endpoint: mean survival time, dose: 200.0 mg/kg/injection, schedule: Q01DX001 (ip), vehicle: saline with Tween-80 96 % of control | endpoint: mean survival time, dose: 400.0 mg/kg/injection, schedule: Q01DX001 (ip), vehicle: saline with Tween-80 95 % of control

COc1cc2c(c3ccccc13)CCCC2=O
inactive: [1] 95 % of control | [2] 92 % of control | [3] 97 % of control

COc1ccc2c(c1)N(CC(C)C[N+](C)(C)CCCCCCCCCC[N+](C)(C)CC(C)CN1c3ccccc3Sc3ccc(OC)cc31)c1ccccc1S2 (stereo unspecified)
inactive: endpoint: mean survival time, dose: 6.25 mg/kg/injection, schedule: Q01DX009 (ip), vehicle: saline 100 % of control | endpoint: mean survival time, dose: 12.5 mg/kg/injection, schedule: Q01DX009 (ip), vehicle: saline 92 % of control | endpoint: mean survival time, dose: 25.0 mg/kg/injection, schedule: Q01DX009 (ip), vehicle: saline 106 % of control

CC(c1ccccc1)C(OC(=O)c1ccc([N+](=O)[O-])cc1)c1ccccc1 (stereo unspecified)
inactive: [1] 97 % of control | [4] 98 % of control | [2] 94 % of control | [5] 94 % of control | [3] 91 % of control | [6] 98 % of control

Source: PubChem BioAssay AID256 (DTP/NCI, 2004)
